Where a name gives a salt, the structure may show the parent alone. Read-outs that look alike come from different tables or passages of the source.
What was measured:
[1] = test system: mice; assay: Mouse hot plate paradigm (analgesic effect, latency until tenth jump); type: in vivo; settings: ip, 0.5 h, minimally effective dose among doses tested, intraperitoneal, dosed 30 minutes prior to testing, hot plate 55 °C, cut-off 180 seconds, increase in tenth jump latency relative to control, read-out: (MED)
Procedure: An in vivo protocol was utilized to determine the effectiveness of nicotinic acetylcholine receptor ligands as analgesic agents in the mouse hot plate paradigm.
Separate groups of mice, (n=8/group) were utilized for each dose group. All drugs were administered by the intraperitoneal route of administration. Test drugs were dissolved in water to make a 6.2 mM stock solution. Animals were dosed with this solution (10 mL/kg body weight) for a 62 micromol/kg dose. Lower doses were administered similarly, following serial dilution of the stock solution in half-log increments. Animals were dosed 30 minutes prior to testing in the hot plate. The hotplate utilized was an automated analgesia monitor (Model #AHP16AN, Omnitech Electronics, Inc. of Columbus, Ohio). The temperature of the hot plate was maintained at 55 °C and a cut-off time of 180 seconds was utilized. Latency until the tenth jump was recorded as the dependent measure. An increase in the tenth jump latency relative to the control was considered an effect.

[2] = molecular target: T1, neuronal nicotinic acetylcholine receptors (Rattus norvegicus, UniProt P09483+P12390); assay: [3H]-cytisine binding to neuronal nicotinic acetylcholine receptors, crude synaptic membranes from whole rat brain
T1 construct: crude synaptic membrane preparations from whole rat brain; from tissue; host or cells: whole rat brain, crude synaptic membranes
Procedure: The In Vitro protocols for determination of nicotinic acetylcholine channel receptor binding potencies of ligands were determined as follows.
Washed membranes were stored at-80 °C prior to use. Frozen aliquots were slowly thawed and resuspended in 20 volumes of buffer (containing: 120 mM NaCl, 5 mM KCI, 2 mM MgCl2, 2 mM CaCl2 and 50 mM Tris-Cl, pH 7.4 @4 °C). After centrifuging at 20,000x g for 15 minutes, the pellets were resuspended in 30 volumes of buffer.
The test compounds were dissolved in water to make 10 mM stock solutions. Each solution was then diluted (1:100) with buffer (as above) and further taken through seven serial log dilutions to produce test solutions from 10^-5 to 10^-11 M.
Samples were incubated for 60 minutes at 4 °C, then rapidly filtered through Whatman GF/B filters presoaked in 0.5% polyethyleneimine using 3 x 4 mL of ice-cold buffer. The filters are counted in 4 mL of Ecolume® (ICN). Nonspecific binding was determined in the presence of 10 µM (-)-nicotine and values were expressed as a percentage of total binding. IC50 values were determined with the RS-1 (BBN) nonlinear least squares curve-fitting program and IC50 values were converted to Ki values using the Cheng and Prusoff correction (Ki=IC50/(1+[ligand]/Kd of ligand).

[3] = [3H]-CYT 1.25 nM, 60 minutes at 4 °C, whole rat brain membranes, Ki from IC50 by Cheng and Prusoff correction, read-out: Average Ki

T1 sequence (P09483 31-630): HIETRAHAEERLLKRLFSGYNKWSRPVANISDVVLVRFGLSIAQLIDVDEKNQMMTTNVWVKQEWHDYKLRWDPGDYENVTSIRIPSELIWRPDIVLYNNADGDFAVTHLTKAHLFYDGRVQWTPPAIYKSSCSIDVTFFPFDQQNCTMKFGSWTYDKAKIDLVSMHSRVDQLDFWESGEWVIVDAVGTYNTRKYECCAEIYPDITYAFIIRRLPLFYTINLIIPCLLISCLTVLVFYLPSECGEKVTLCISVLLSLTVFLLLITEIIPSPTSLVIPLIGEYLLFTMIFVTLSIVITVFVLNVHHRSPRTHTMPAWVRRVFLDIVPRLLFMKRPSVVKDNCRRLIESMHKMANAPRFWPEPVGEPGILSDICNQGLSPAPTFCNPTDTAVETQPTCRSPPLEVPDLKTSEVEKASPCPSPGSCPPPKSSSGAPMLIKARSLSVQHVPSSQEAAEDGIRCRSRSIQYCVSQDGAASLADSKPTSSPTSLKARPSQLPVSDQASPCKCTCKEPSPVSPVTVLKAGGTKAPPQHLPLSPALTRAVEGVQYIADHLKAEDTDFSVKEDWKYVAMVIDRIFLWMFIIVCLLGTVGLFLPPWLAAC
T1 sequence (P12390 25-500): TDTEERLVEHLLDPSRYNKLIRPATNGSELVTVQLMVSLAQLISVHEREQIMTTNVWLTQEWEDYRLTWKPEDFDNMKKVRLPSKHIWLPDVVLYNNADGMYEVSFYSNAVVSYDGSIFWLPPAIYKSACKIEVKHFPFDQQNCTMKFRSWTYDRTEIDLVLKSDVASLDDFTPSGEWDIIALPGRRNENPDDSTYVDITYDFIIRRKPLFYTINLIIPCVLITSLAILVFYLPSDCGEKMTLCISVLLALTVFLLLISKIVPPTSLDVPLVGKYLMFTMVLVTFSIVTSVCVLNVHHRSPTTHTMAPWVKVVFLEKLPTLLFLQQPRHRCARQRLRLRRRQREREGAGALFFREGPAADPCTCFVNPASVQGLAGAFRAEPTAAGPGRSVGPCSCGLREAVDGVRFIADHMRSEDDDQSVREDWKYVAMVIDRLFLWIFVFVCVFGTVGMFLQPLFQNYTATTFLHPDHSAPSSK

SMILES	minimal effective dose [1] [µmol/kg]	Ki [2] [nM]	Ki [2, 3] [nM]
c1cnnc(N2C[C@H]3C[C@@H]2CN3)c1 [Example 25, (1R,4R)-2-(3-pyridazinyl)-2,5-diazabicyclo[2,2,1]heptane 4-methylbenzenesulfonate]	19	0.4	
N#CCN1C[C@H]2C[C@@H]1CN2c1ccc(Cl)nc1 [Example 27, (1R,4R)-2-(6-chloro-3-pyridinyl)-5-cyanomethyl-2,5-diazabicyclo[2.2.1]heptane 4-methylbenzenesulfonate]	1.9	0.05	
Fc1ccc(N2C[C@@H]3C[C@H]2CN3)cn1 [Example 30, (1S,4S)-2-(6-fluoro-3-pyridinyl)-2,5-diazabicyclo[2.2.1]heptane bis(4-methylbenzenesulfonate)]	1.9	0.17	
Brc1cncc(N2C[C@@H]3C[C@H]2CN3)c1 [Example 31, (1S,4S)-2-(5-bromo-3-pyridinyl)-2,5-diazabicyclo[2.2.1]heptane 4-methylbenzenesulfonate]	62	1.2	
Fc1ccc(N2C[C@H]3C[C@@H]2CN3)cn1 [Example 33, (1R,4R)-2-(6-fluoro-3-pyridinyl)-2,5-diazabicyclo[2.2.1]heptane 4-methylbenzenesulfonate]	0.19	0.03	
Clc1ccc(N2CCC3CC2CN3)cn1 (stereo not drawn) [Example 35, 2-(6-chloro-3-pyridinyl)-2,6-diazabicyclo[3.2.1]octane trihydrochloride]	19		1.5
Clc1ccc(N2CCC3CCC(C2)N3)cn1 (stereo not drawn) [Example 36, 3-(6-chloro-3-pyridinyl)-3,9-diazabicyclo[4.2.1]nonane hydrochloride]	1.9	0.06	
CN1C2CCC1CN(c1cccnc1)CC2 (stereo not drawn) [Example 37, 9-methyl-3-(3-pyridinyl)-3,9-diazabicyclo[4.2.1]nonane 4-methylbenzenesulfonate]	6.2	0.55	
NC(=O)c1cncc(N2C[C@@H]3C[C@H]2CN3)c1 [Example 38, (1S,4S)-2-(5-aminocarbonyl-3-pyridinyl)-2,5-diazabicyclo[2.2.1]heptane bis(4-methylbenzenesulfonate)]	19	24	
Oc1cncc(N2C[C@H]3C[C@@H]2CN3)c1 [Example 39, (1R,4R)-2-(5-hydroxy-3-pyridinyl)-2,5-diazabicyclo[2.2.1]heptane 4-methylbenzenesulfonate]	62	0.04	
Oc1cc(N2C[C@H]3C[C@@H]2CN3)cnc1Cl [Example 40, (1R,4R)-2-(6-chloro-5-hydroxy-3-pyridinyl)-2,5-diazabicyclo[2.2.1]heptane 4-methylbenzenesulfonate]	19	0.17	
c1cncc(N2CCC3CCC(C2)N3)c1 (stereo not drawn) [Example 41, 3-(3-pyridinyl)-3,9-diazabicyclo[4.2,1]nonane bis(4-methylbenzenesulfonate)]	6.2	0.03	
N#Cc1cncc(N2C[C@H]3C[C@@H]2CN3)c1 [Example 44, (1R,4R)-2-(5-cyano-3-pyridinyl)-2,5-diazabicyclo[2,2,1]heptane 4-methylbenzenesulfonate]	0.62	0.03	
COc1ccc(N2C[C@H]3C[C@@H]2CN3)cn1 [Example 46, (1R,4R)-2-(6-methoxy-3-pyridinyl)-2,5-diazabicyclo[2.2.1]heptane 4-methylbenzenesulfonate]	6.2	0.25	
Cc1cc(N2C[C@H]3C[C@@H]2CN3)cnc1Cl [Example 47, (1R,4R)-2-(6-chloro-5-methyl-3-pyridinyl)-2,5-diazabicyclo[2.2.1]heptane 4-methylbenzenesulfonate]	6.2	0.009	
Clc1cc(N2C[C@H]3C[C@@H]2CN3)cnc1Cl [Example 48, (1R,4R)-2-(5,6-dichloro-3-pyridinyl)-2,5-diazabicyclo[2.2.1]heptane 4-methylbenzenesulfonate]	6.2	0.01	
c1cncc(N2CC3CNCC(C3)C2)c1 [Example 57, 3-(3-pyridinyl)-3,7-diazabicyclo[3.3.1]nonane bis(4-methylbenzenesulfonate)]	1.9		0.02
Clc1ccc(N2CC3CNCC(C3)C2)cn1 [Example 58, 3-(6-Chloro-3-pyridinyl)-3,7-diazabicyclo[3.3.1]nonane 4-methylbenzenesulfonate]	0.62	0.02	

Reference: EP1359152B1, “Diazabicyclic derivatives as nicotinic acetylcholine receptor ligands” (ABBOTT LABORATORIES, priority 1999, dated 2000)
